In patent publication US8822430B2 (Gilead Sciences, Inc., priority 2009, dated 2014) one finds EC50 data, which are given here for 38 compounds.

For this assay, the system named is HCV 1b RLuc cells (dicistronic genotype 1b Con1 replicon). Put plainly: Renilla luciferase (RLuc)-based HCV replicon reporter assay. The format is cell-based, HCV genotype 1b. The settings on record: Hepatitis C virus, 72 h, HCV 1b RLuc replicon, 72 hours; read-out: Activity (antiviral potency [EC50]). The method, then:
Antiviral potency (EC50) was determined using a Renilla luciferase (RLuc)-based HCV replicon reporter assay. To perform the assay, HCV 1b RLuc cells (harboring a dicistronic genotype 1b Con1 replicon that encodes a RLuc reporter), or HCV 1a RLuc cells (harboring a dicistronic genotype 1a H77 replicon that encodes a RLuc reporter), were dispensed into 384-well plates. Compounds were re-suspended in DMSO at a concentration of 10 mM and serially diluted in DMSO using an automated pipeting instrument. Serially diluted compounds were mixed with cell culture media and added to the seeded cells. DMSO was used as a negative (solvent) control, and the protease inhibitor ITMN-191 was included at a concentration >100×EC50 as a positive control. 72 hours later, cells were lysed and Renilla luciferase activity quantified as recommended by the manufacturer (Promega-Madison, Wis.). Non-linear regression was performed to calculate EC50 values.
Biological data (antiviral potency [EC50] was determined using a Renilla luciferase (RLuc)-based HCV replicon reporter assay—HCV 1b RLuc) for representative compounds of the invention is provided in the following table. These compounds can be prepared using procedures similar to those described above.
(Replicon systems follow genome replication, usually without infectious particles.)
On to `COC(=O)N[C@H](C(=O)N1CCC[C@H]1c1ncc(-c2ccc3cc(-c4ccc(-c5cnc([C@@H]6CCCN6C(=O)[C@H](O)c6ccccc6)[nH]5)cc4)ccc3c2)[nH]1)C(C)C`, for which the concentration giving a half-maximal response (EC50) (usually the concentration that produces a half-maximal response) came out at 0.0097 nM.

On to `COC(=O)N[C@H](C(=O)N1CCC[C@H]1c1ncc(-c2ccc3cc(C#Cc4ccc5nc([C@@H]6[C@H]7CC[C@H](C7)N6C(=O)[C@@H](NC(=O)OC)C(C)C)[nH]c5c4)ccc3c2)[nH]1)C(C)C`, for which the EC50 was determined as 0.0195 nM.

`COC(=O)N[C@H](C(=O)N[C@@H](CO)c1ncc(-c2ccc(-c3ccc(-c4cnc([C@@H]5CCCN5C(=O)[C@@H](NC(=O)OC)C(C)C)[nH]4)cc3)cc2)[nH]1)C(C)C`: the EC50 stood at 0.0775 nM.

Consider `COC(=O)N[C@H](C(=O)N1CC2(CC2)C[C@H]1c1ncc(-c2ccc3c(c2)C(F)(F)c2cc(-c4c[nH]c([C@@H]5CCCN5C(=O)[C@@H](NC(=O)OC)C5CCOCC5)n4)ccc2-3)[nH]1)C(C)C`, for which the concentration giving a half-maximal response (EC50) amounted to 0.0614 nM.

Regarding `COC(=O)N[C@H](C(=O)N1CC2(CC2)C[C@H]1c1ncc(-c2ccc(-c3ccc4cc(-c5cnc([C@@H]6CC7(CC7)CN6C(=O)[C@@H](NC(=O)OC)C(C)C)[nH]5)ccc4c3)cc2)[nH]1)C(C)C`, the EC50 came to 0.0048 nM.

With `CN[C@H](C(=O)N1CCC[C@H]1c1nc2ccc(-c3ccc(-c4ccc(-c5ccc6nc([C@@H]7CCCN7C(=O)[C@@H](NC(=O)OC)C(C)C)[nH]c6c5)cc4)cc3)cc2[nH]1)C(C)C`, the EC50 worked out at 0.0441 nM.

On to `COC(=O)N[C@H](C(=O)N1CCC[C@H]1c1ncc(-c2ccc(-c3ccc(-c4cnc([C@@H]5CN(S(C)(=O)=O)CN5C(=O)[C@@H](NC(=O)OC)C(C)C)[nH]4)cc3)cc2)[nH]1)C(C)C`, for which the EC50 was found to be 0.0383 nM.

As to `COC(=O)N[C@H](C(=O)N1CCCC[C@H]1c1ncc(-c2ccc(C#Cc3ccc(-c4cnc([C@@H]5CCCN5C(=O)[C@@H](NC(=O)OC)C(C)C)[nH]4)cc3)cc2)[nH]1)C(C)C`, the 50% effective concentration (EC50) worked out at 0.0224 nM.

`COC(=O)N[C@@H](C)C(=O)N1CCC[C@H]1c1ncc(-c2ccc3c(c2)sc2cc(-c4ccc5nc([C@@H]6[C@H]7CC[C@H](C7)N6C(=O)[C@H](C)NC(=O)OC)[nH]c5c4)ccc23)[nH]1`: the EC50 turned out to be 0.075 nM.

As to `COC(=O)N[C@H](C(=O)N1CC[C@H]1c1nc2ccc(-c3ccc(-c4ccc(-c5cnc([C@@H]6CCCN6C(=O)[C@H](NC(=O)OC)c6ccccc6)[nH]5)cc4)cc3)cc2[nH]1)C(C)C`, the EC50 was 0.0195 nM.

`COC(=O)N[C@H](C(=O)N1C[C@@H](C#N)C[C@H]1c1ncc(-c2ccc(C#Cc3ccc(-c4cnc([C@@H]5CC6(CC6)CN5C(=O)[C@@H](NC(=O)OC)C(C)C)[nH]4)cc3)cc2)[nH]1)C(C)C`: the 50% effective concentration (EC50) is 0.0149 nM.

For `COC(=O)N[C@@H](C(=O)N1CCC[C@@H]1c1ncc(-c2ccc3c(c2)S(=O)(=O)c2cc(-c4cnc([C@H]5CCCN5C(=O)[C@H](NC(=O)OC)C(C)C)[nH]4)ccc2-3)[nH]1)C(C)C`, the EC50 turned out to be 0.0535 nM.

Turning to `COC(=O)N[C@@H](C)C(=O)N1[C@@H](c2ccccc2)CC[C@H]1c1ncc(-c2ccc(-c3ccc4cc(-c5cnc([C@@H]6CCCN6C(=O)[C@@H](NC(=O)OC)C(C)C)[nH]5)ccc4c3)cc2)[nH]1`, the EC50 worked out at 0.788 nM.

Consider `COC(=O)N[C@H](C(=O)N1CCC[C@H]1c1nc2ccc(-c3ccc(-c4ccc(-c5cnc([C@@H]6[C@H]7CC[C@H](C7)N6C(=O)[C@@H](NC(=O)OC)C(C)C)[nH]5)cc4)cc3)cc2[nH]1)C(C)C`, for which the concentration giving a half-maximal response (EC50) amounted to 0.0213 nM.

As for `COC(=O)N[C@@H](CCS(C)(=O)=O)C(=O)N1C[C@@H](C#N)C[C@H]1c1ncc(-c2ccc(-c3ccc4cc(-c5cnc([C@@H]6CC7(CC7)CN6C(=O)[C@@H](NC(=O)OC)C(C)C)[nH]5)ccc4c3)cc2)[nH]1`, the EC50 amounted to 0.256 nM.

Turning to `COC(=O)N[C@H](C(=O)N1CCC[C@H]1c1ncc(-c2ccc3cc(-c4ccc(-c5cnc([C@@H]6CC(=O)CN6C(=O)[C@@H](NC(=O)OC)C(C)C)[nH]5)cc4)ccc3c2)[nH]1)C(C)C`, the EC50 stood at 0.0103 nM.

For `COC(=O)N[C@H](C(=O)N1CCC[C@H]1c1ncc(-c2ccc(/C=C/c3ccc(-c4cnc([C@@H]5CCCN5C(=O)[C@@H](NC(=O)OC)C(C)C)[nH]4)cc3)cc2)[nH]1)C(C)C`, the EC50 turned out to be 0.0264 nM.

For `CCC(=O)N[C@H](C(=O)N1CC2(CC2)C[C@H]1c1ncc(-c2ccc(-c3ccc(-c4cnc([C@@H]5CCCN5C(=O)[C@@H](NC(=O)OC)C(C)C)[nH]4)cc3)cc2)[nH]1)C(C)C`, the concentration giving a half-maximal response (EC50) was found to be 0.013 nM.

Regarding `COC(=O)N[C@H](C(=O)N1CCC[C@H]1c1ncc(-c2ccc(-c3ccc(-c4cnc([C@@H]5CN(C(=O)c6ccccc6)CN5C(=O)[C@@H](NC(=O)OC)C(C)C)[nH]4)cc3)cc2)[nH]1)C(C)C`, the concentration giving a half-maximal response (EC50) worked out at 0.0136 nM.

With `COC(=O)N[C@H](C(=O)N1CC2(CC2)C[C@H]1c1ncc(-c2ccc3cc(-c4ccc(-c5cnc([C@@H]6CCCN6C(=O)[C@@H](NC(=O)OC)C(C)OC)[nH]5)cc4)ccc3c2)[nH]1)C(C)C` (some centres unmarked), the EC50 was 0.0074 nM.

With `C=C1C[C@@H](c2ncc(-c3ccc(-c4ccc5cc(-c6cnc([C@@H]7CCCN7C(=O)[C@@H](NC(=O)OC)C(C)C)[nH]6)ccc5c4)cc3)[nH]2)N(C(=O)[C@@H](NC(=O)OC)C(C)C)C1`, the EC50 was determined as 0.0113 nM.

With `COC(=O)N[C@H](C(=O)N1CCC[C@H]1c1ncc(-c2ccc3c(c2)C(C)(C)c2cc(-c4cnc([C@@H]5CCCN5C(=O)[C@@H](NC(=O)OC)C(C)C)[nH]4)ccc2-3)[nH]1)C(C)C`, the concentration for a half-maximal effect (EC50) was determined as 0.0102 nM.

For `COC(=O)N[C@H](C(=O)N1CCC[C@H]1c1ncc(-c2ccc(C#Cc3ccc(-c4cnc([C@@H]5CN(C(=O)OC)CN5C(=O)[C@@H](NC(=O)OC)C(C)C)[nH]4)cc3)cc2)[nH]1)C(C)C`, the half-maximal effective concentration (EC50) was found to be 0.0187 nM.

Regarding `COC(=O)N[C@H](C(=O)N1CCC[C@H]1C(=O)Nc1ccc(-c2ccc(-c3cnc([C@@H]4CCCN4C(=O)[C@@H](NC(=O)OC)C(C)C)[nH]3)cc2)cc1)C(C)C`, the half-maximal effective concentration (EC50) is 0.124 nM.

For the compound `COC(=O)N[C@H](C(=O)N1CCC[C@H]1c1ncc(-c2ccc3c(c2)oc2cc(-c4cnc([C@@H]5[C@H]6CC[C@H](C6)N5C(=O)[C@@H](NC(=O)OC)C(C)C)[nH]4)ccc23)[nH]1)C(C)C`, the EC50 stood at 0.0082 nM.

Regarding `COC(=O)N[C@H](C(=O)N1CCC[C@H]1c1ncc(-c2ccc3c(c2)C(=O)c2cc(-c4ccc5nc([C@@H]6[C@H]7CC[C@H](C7)N6C(=O)[C@@H](NC(=O)OC)C(C)C)[nH]c5c4)ccc2-3)[nH]1)C(C)C`, the EC50 worked out at 0.006 nM.

As to `COC(=O)N[C@H](C(=O)N1CCC[C@H]1c1ncc(-c2ccc3cc(-c4ccc5nc([C@@H]6CCCN6C(=O)[C@@H](NC(=O)OC)C(C)C)[nH]c5c4)ccc3c2)[nH]1)C(C)C`, the EC50 came to 0.0067 nM.

As to `COC(=O)N[C@H](C(=O)N1CCC[C@H]1c1ncc(-c2ccc3cc(-c4ccc(-c5cnc([C@@H]6CCCN6C(=O)[C@@H](NC(=O)OC)C6Cc7ccccc7C6)[nH]5)cc4)ccc3c2)[nH]1)C(C)C`, the 50% effective concentration (EC50) was determined as 0.0104 nM.

Regarding `COC(=O)N[C@H](C(=O)N1CC2(CC2)C[C@H]1c1ncc(-c2ccc3cc(-c4ccc(-c5cnc([C@@H]6[C@H]7CC[C@H](C7)N6C(=O)[C@@H](NC(=O)OC)C(C)C)[nH]5)cc4)ccc3c2)[nH]1)C(C)C`, the concentration for a half-maximal effect (EC50) turned out to be 0.0067 nM.

With `COC(=O)N[C@H](C(=O)N1CCC[C@H]1c1ncc(-c2ccc(-c3ccc(-c4cnc([C@@H]5CN(S(=O)(=O)c6ccccc6)CN5C(=O)[C@@H](NC(=O)OC)C(C)C)[nH]4)cc3)cc2)[nH]1)C(C)C`, the EC50 was 0.0788 nM.

As to `COC(=O)NC(C(=O)N1CCC[C@H]1c1ncc(-c2ccc(-c3ccc4cc(-c5cnc([C@@H]6CCCN6C(=O)[C@@H](NC(=O)OC)C(C)C)[nH]5)ccc4c3)cc2)[nH]1)c1ccsc1` (some centres unmarked), the EC50 turned out to be 0.0197 nM.

Regarding `COC(=O)N[C@H](C(=O)N1CCC[C@H]1C(=O)Nc1ccc(-c2ccc(-c3ccc(-c4cnc([C@@H]5CCCN5C(=O)[C@@H](NC(=O)OC)C(C)C)[nH]4)cc3)cc2)cc1)C(C)C`, the EC50 was determined as 0.0875 nM.

With `COC(=O)N[C@H](C(=O)N1CC2(CC2)C[C@H]1c1ncc(-c2ccc3c(c2)C2(CC2)c2cc(-c4ccc5nc([C@@H]6[C@H]7CC[C@H](C7)N6C(=O)[C@@H](NC(=O)OC)C(C)C)[nH]c5c4)ccc2-3)[nH]1)C(C)C`, the concentration for a half-maximal effect (EC50) was 0.0073 nM.

Regarding `COC(=O)N[C@H](C(=O)N1CCC[C@H]1c1ncc(-c2ccc3cc(-c4ccc(-c5cnc([C@@H]6CCCN6C(=O)[C@@H](OC(=O)N(C)C)c6ccccc6)[nH]5)cc4)ccc3c2)[nH]1)C(C)C`, the EC50 worked out at 0.0794 nM.

Turning to `COC(=O)N[C@H](C(=O)N1CCC[C@H]1c1ncc(-c2ccc(-c3ccc(-c4cnc(CN5CC(=O)N[C@@H](C(C)C)C5=O)[nH]4)cc3)cc2)[nH]1)C(C)C`, the concentration for a half-maximal effect (EC50) is 0.513 nM.

Turning to `COC(=O)N[C@H](C(=O)N1CCC[C@H]1c1ncc(-c2ccc3cc(-c4ccc(-c5cnc([C@@H]6C[C@H](c7ccccc7)CN6C(=O)[C@@H](NC(=O)OC)C(C)C)[nH]5)cc4)ccc3c2)[nH]1)C(C)C`, the EC50 came out at 0.0189 nM.

As for `COC(=O)N[C@H](C(=O)N1[C@@H]2CC[C@@H](C2)[C@H]1c1nc2ccc(-c3ccc4c(c3)C(=O)c3cc(-c5cnc([C@@H]6CC7(CC7)CN6C(=O)[C@H](NC(=O)OC)C(C)C)[nH]5)ccc3-4)cc2[nH]1)C(C)C`, the concentration giving a half-maximal response (EC50) came out at 0.005 nM.

In the case of `COC(=O)N[C@H](C(=O)N1CCC[C@H]1c1ncc(-c2ccc(-c3ccc(-c4cnc([C@@H]5CCCN5C(=O)[C@@H](NC(=O)OC)C(C)C)[nH]4)s3)cc2)[nH]1)C(C)C`, the EC50 amounted to 0.0081 nM.
